Experiments:
IDO1 [1] = biological target: T1, IDO1 (Homo sapiens (Human), UniProt P14902); test: IDO1 Cellular Assay in Frozen HEK293 Cells Transiently Transfected with Human IDO1; assay type: cell-based; details: read-out: IDO1 HEK293 Cell Assay, IC50
Description: IDO1 Cellular Assay in Frozen HEK293 Cells Transiently Transfected with Human IDO1
HEK293 cells were cultured in complete HEK293 culture medium (90% DMEM, 10% heat-inactivated fetal bovine serum). When reaching sub-confluent, the cells were trypsinized and neutralized with complete medium. […] Flag-IDO1 plasmid was added to the cell suspension at a concentration of 100 μg/mL. The cell-plasmid solutions were transferred to the OC-400 processing assembly (Maxcyte), 400 l/unit and the units were placed in a Maxcyte instrument to carry out flow electroporation for transfection. The cells were then transferred to a sterile 24-well cell culture plate to recover for 20-30 min at 37° C. in an incubator with 5% CO2.
Frozen HEK293/IDO1 and HEK293 WT cells were thawed and transferred into HEK293 assay medium (99% complete HEK293 culture medium, 1% Pen/Strep) with 20 mL medium/vial of cells. The cells were spun down at 250 g in a table top centrifuge for 5 min and suspended in same volume of HEK293 assay medium. […] Sterile L-tryptophan were added to the cells with final concentration of 300 μM.
(§1) HEK293/IDO1 and HEK293 WT cells were dispensed to the respective wells of 384-well assay plates containing the compounds. The plates were incubated for about 28-30 h at a 37° C., 5% CO2 incubator. […] The plates were centrifuged for 1 min at 200×g. The resulting fluorescence was measured in a Spectramax plate reader (Molecular Devices) with a 400 nm excitation filter and a 510 nm emission filter.

IDO1 [2] = biological target: T1, IDO1; test: IDO1 Enzyme Assay; details: read-out: IDO1 Enzyme Assay, IC50; HIS-tagged recombinant IDO1, 40 nM
IDO1 [3] = biological target: T1, IDO1; test: IDO1 Cellular Assay in Hela Cells Stimulated with IFNγ; assay type: cell-based; details: Hela cells stimulated with IFNγ 100 ng/mL; read-out: IDO1 HELA Cell Assay, IC50
Description: IDO1 Cellular Assay in Hela Cells Stimulated with IFNγ
Hela cells were cultured in complete Hela culture medium (90% EMEM, 10% heat-inactivated fetal bovine serum) and expanded to about 1×10^9 cells. The cells were then collected and frozen down at 10×10^6 cells/vial in 1 mL frozen medium (90% complete Hela culture medium, 10% DMSO)
Frozen Hela cells were thawed and transferred into Hela assay medium (99% complete Hela culture medium, 1% Pen/Strep) with 20 mL medium/vial of cells. The cells were spun down at 250 g in a table top centrifuge for 5 min and suspended in same volume of Hela assay medium. The cells were then counted and adjusted to a density of 2×10^5 cells/ml in Hela assay medium. Sterile L-tryptophan were added to the cells with final concentration of 300 uM L-tryptophan. A small aliquot (2 mL/plate) of Hela cells were set aside and were not treated with IFNγ, to serve as the Max-E control. The rest of Hela cells were added with sterile IFNγ (Cat #285-IF, R & D systems) with a final concentration of 100 ng/mL.
as §1, with “Hela cells with” for “HEK293/IDO1”, “without IFNγ” for “HEK293 WT cells”, “48 hours” for “28-30 h”

[4] = HEK293 cells transiently transfected with human IDO1

T1 sequence (P14902 whole entry): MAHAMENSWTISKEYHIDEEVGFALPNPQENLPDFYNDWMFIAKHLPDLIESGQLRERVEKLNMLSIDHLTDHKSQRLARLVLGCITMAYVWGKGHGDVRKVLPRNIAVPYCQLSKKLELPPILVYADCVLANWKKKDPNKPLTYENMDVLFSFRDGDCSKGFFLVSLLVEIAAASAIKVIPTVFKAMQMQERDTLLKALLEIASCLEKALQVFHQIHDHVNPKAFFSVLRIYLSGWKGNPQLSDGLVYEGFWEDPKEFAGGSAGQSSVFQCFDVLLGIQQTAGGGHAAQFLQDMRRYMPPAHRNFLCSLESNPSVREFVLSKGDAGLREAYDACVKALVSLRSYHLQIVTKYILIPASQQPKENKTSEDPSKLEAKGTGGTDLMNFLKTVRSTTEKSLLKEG

Question: How did the IC50 (IDO1 [1]; [4]) turn out when `CC(C)(C)OC(=O)NCCSc1nonc1/C(=N/O)Nc1ccc(F)c(Br)c1` [Example 1, Tert-butyl (Z)-(2-((4-(N-(3-bromo-4-fluorophenyl)-N′-hydroxycarbamimidoyl)-1,2,5-oxadiazol-3-yl)thio)ethyl)carbamate] was run?
Answer: 740 nM

Question: `O/N=C(\Nc1ccc(F)c(Br)c1)c1nonc1O` [Example 4, (Z)—N-(3-Bromo-4-fluorophenyl)-N′,4-dihydroxy-1,2,5-oxadiazole-3-carboximidamide] was tested. Which IC50 (IDO1 [1]; [4]) did it give?
Answer: 3700 nM

Question: What about the IC50 (IDO1 [2]) of the same compound?
Answer: > 10000 nM

Question: What does the source list for `O=C(O)CCSc1nonc1/C(=N/O)Nc1ccc(F)c(Br)c1` [Example 14, (Z)-3-((4-(N-(3-bromo-4-fluorophenyl)-N′-hydroxycarbamimidoyl)-1,2,5-oxadiazol-3-yl)thio)propanoic acid]?
Answer: IC50 (IDO1 [1]; [4]): > 10000 nM; IC50 (IDO1 [2]): 48.2 nM

Question: With `CC(Sc1nonc1/C(=N/O)Nc1ccc(F)c(Br)c1)C(=O)O` (stereo not shown) [Example 16, (Z)-2-((4-(N-(3-bromo-4-fluorophenyl)-N′-hydroxycarbamimidoyl)-1,2,5-oxadiazol-3-yl)thio)propanoic acid] as the compound, how does the IC50 (IDO1 [1]; [4]) read?
Answer: > 10000 nM

Question: What about the IC50 (IDO1 [2]) of the same compound?
Answer: 149 nM

Question: Which results are given for `COC(=O)CSc1nonc1/C(=N/O)Nc1ccc(F)c(Br)c1` [Example 22, Methyl (Z)-2-((4-(N-(3-bromo-4-fluorophenyl)-N′-hydroxycarbamimidoyl)-1,2,5-oxadiazol-3-yl)thio)acetate]?
Answer: IC50 (IDO1 [1]; [4]): 1220 nM; IC50 (IDO1 [2]): 35.7 nM

Question: For `CC(=O)NCCSc1nonc1/C(=N/O)Nc1ccc(F)cc1` [Example 62, N-[2-({4-[N-(4-fluorophenyl)-N′-hydroxycarbamimidoyl]-1,2,5-oxadiazol-3-yl}sulfanyl)ethyl]acetamide], which IC50 (IDO1 [1]; [4]) is on record?
Answer: 1790 nM

Question: And the IC50 (IDO1 [2])?
Answer: 1030 nM

Question: Which results are given for `O=c1c(NCCSc2nonc2/C(=N/O)Nc2ccc(F)c(Br)c2)c(NCC(O)CO)c1=O` (stereo not shown) [Example 75, N-(3-bromo-4-fluorophenyl)-4-{[2-({2-[(2,3-dihydroxypropyl)amino]-3,4-dioxocyclobut-1-en-1-yl}amino)ethyl]sulfanyl}-N′-hydroxy-1,2,5-oxadiazole-3-carboximidamide]?
Answer: IC50 (IDO1 [1]; [4]): 1140 nM; IC50 (IDO1 [2]): 23 nM

Question: `O=c1c(NCCSc2nonc2/C(=N/O)Nc2ccc(F)c(Br)c2)c(NCc2ccncc2)c1=O` [Example 95, N-(3-bromo-4-fluorophenyl)-4-{[2-({3,4-dioxo-2-[(pyridin-4-ylmethyl)amino]cyclobut-1-en-1-yl}amino)ethyl]sulfanyl}-N′-hydroxy-1,2,5-oxadiazole-3-carboximidamide] was tested. Which IC50 (IDO1 [1]; [4]) did it give?
Answer: 723 nM

Question: And the IC50 (IDO1 [2])?
Answer: 27.8 nM

Question: `O=P(CCSc1nonc1/C(=N/O)Nc1ccc(F)c(Br)c1)(Oc1ccccc1)Oc1ccccc1` [Example 101, diphenyl [2-({4-[N-(3-bromo-4-fluorophenyl)-N′-hydroxycarbamimidoyl]-1,2,5-oxadiazol-3-yl}sulfanyl)ethyl]phosphonate] was tested. Which IC50 (IDO1 [1]) did it give?
Answer: 2240 nM

Question: And the IC50 (IDO1 [2])?
Answer: 764 nM

Question: Which IC50 (IDO1 [1]; [4]) does the source give for `CCOC(=O)CNP(=O)(CCCSc1nonc1/C(=N/O)Nc1ccc(F)c(Br)c1)NCC(=O)OCC` [Example 108, ethyl 4-[3-({4-[N-(3-bromo-4-fluorophenyl)-N′-hydroxycarbamimidoyl]-1,2,5-oxadiazol-3-yl}sulfanyl)propyl]-7-oxo-8-oxa-3,5-diaza-4-phosphadecan-1-oate 4-oxide] here?
Answer: 838 nM

Question: And the IC50 (IDO1 [2])?
Answer: 131 nM

Question: Which results are given for `CC(C)OC(=O)OCOP(=O)(CCCSc1nonc1/C(=N/O)Nc1ccc(F)c(Br)c1)OCOC(=O)OC(C)C` [Example 109, bis({[(1-methylethoxy)carbonyl]oxy}methyl) [3-({4-[N-(3-bromo-4-fluorophenyl)-N′-hydroxycarbamimidoyl]-1,2,5-oxadiazol-3-yl}sulfanyl)propyl]phosphonate]?
Answer: IC50 (IDO1 [1]; [4]): 2430 nM; IC50 (IDO1 [2]): 706 nM

Question: With `O=P(CCSc1nonc1/C(=N/O)Nc1ccc(F)c(Br)c1)(NCc1ccccc1)NCc1ccccc1` [Example 116, 4-({2-[bis(benzylamino)phosphoryl]ethyl}sulfanyl)-N-(3-bromo-4-fluorophenyl)-N′-hydroxy-1,2,5-oxadiazole-3-carboximidamide] as the compound, how does the IC50 (IDO1 [1]; [4]) read?
Answer: 706 nM

Question: And the IC50 (IDO1 [2])?
Answer: 154 nM

Question: Which IC50 (IDO1 [1]) does the source give for `O=P(O)(CCCSc1nonc1/C(=N/O)Nc1ccc(F)c(Br)c1)Oc1ccccc1` [Example 118, phenyl hydrogen [3-({4-[N-(3-bromo-4-fluorophenyl)-N′-hydroxycarbamimidoyl]-1,2,5-oxadiazol-3-yl}sulfanyl)propyl]phosphonate] here?
Answer: 8150 nM

Question: And the IC50 (IDO1 [2])?
Answer: 34.1 nM

Question: `CN(C)P(=O)(CCSc1nonc1/C(=N/O)Nc1ccc(F)c(Br)c1)N(C)C` [Example 139, 4-({2-[bis(dimethylamino)phosphoryl]ethyl}sulfanyl)-N-(3-bromo-4-fluorophenyl)-N′-hydroxy-1,2,5-oxadiazole-3-carboximidamide] was tested. Which IC50 (IDO1 [1]) did it give?
Answer: 551 nM

Question: What about the IC50 (IDO1 [2]) of the same compound?
Answer: 117 nM

Question: For `O=C(CSc1nonc1/C(=N/O)Nc1ccc(F)c(Br)c1)NC1(CO)CC1` [Example 202, 2-((4-(N-(3-bromo-4-fluorophenyl)-N′-hydroxycarbamimidoyl)-1,2,5-oxadiazol-3-yl)thio)-N-(1-(hydroxymethyl)cyclopropyl) acetamide], which IC50 (IDO1 [3]) is on record?
Answer: 12.2 nM

Question: And the IC50 (IDO1 [2])?
Answer: 20.2 nM

Question: Which results are given for `C[C@H](O)CNC(=O)CSc1nonc1/C(=N/O)Nc1ccc(F)c(Br)c1` [Example 203, (S)-2-((4-(N-(3-bromo-4-fluorophenyl)-N′-hydroxycarbamimidoyl)-1,2,5-oxadiazol-3-yl)thio)-N-(2-hydroxypropyl)acetamide]?
Answer: IC50 (IDO1 [3]): 11.6 nM; IC50 (IDO1 [2]): 14.5 nM

Question: What does the source list for `CC(C)(Sc1nonc1/C(=N/O)Nc1ccc(F)c(Br)c1)C(=O)NC[C@@H](O)CO` [Example 204, (R)-2-((4-(N-(3-bromo-4-fluorophenyl)-N′-hydroxycarbamimidoyl)-1,2,5-oxadiazol-3-yl)thio)-N-(2,3-dihydroxypropyl)-2-methylpropanamide]?
Answer: IC50 (IDO1 [3]): 144 nM; IC50 (IDO1 [2]): 82.6 nM

Question: With `C[C@@H](CO)NC(=O)CSc1nonc1/C(=N/O)Nc1ccc(F)c(Br)c1` [Example 205, (S)-2-((4-(N-(3-bromo-4-fluorophenyl)-N′-hydroxycarbamimidoyl)-1,2,5-oxadiazol-3-yl)thio)-N-(1-hydroxypropan-2-yl)acetamide] as the compound, how does the IC50 (IDO1 [3]) read?
Answer: 11.7 nM

Question: And the IC50 (IDO1 [2])?
Answer: 12.4 nM

Question: With `CC(C)(NC(=O)CSc1nonc1/C(=N/O)Nc1ccc(F)c(Br)c1)C(O)CO` (stereo not shown) [Example 208, 2-((4-(N-(3-bromo-4-fluorophenyl)-N′-hydroxycarbamimidoyl)-1,2,5-oxadiazol-3-yl)thio)-N-(3,4-dihydroxy-2-methylbutan-2-yl)acetamide] as the compound, how does the IC50 (IDO1 [3]) read?
Answer: 37.5 nM

Question: And the IC50 (IDO1 [2])?
Answer: 26.6 nM

Question: With `NS(=O)(=O)NCCOc1nonc1/C(=N/O)Nc1ccc(F)c(Br)c1` [Example 212, N-(3-bromo-4-fluorophenyl)-N′-hydroxy-4-(2-(sulfamoylamino)ethoxy)-1,2,5-oxadiazole-3-carboximidamide] as the compound, how does the IC50 (IDO1 [3]) read?
Answer: 111 nM

Question: What about the IC50 (IDO1 [2]) of the same compound?
Answer: 52 nM

Question: For `NCCOc1nonc1/C(=N/O)Nc1ccc(F)c(Br)c1` [Example 213, 4-(2-aminoethoxy)-N-(3-bromo-4-fluorophenyl)-N′-hydroxy-1,2,5-oxadiazole-3-carboximidamide], which IC50 (IDO1 [3]) is on record?
Answer: 607 nM

Question: What about the IC50 (IDO1 [2]) of the same compound?
Answer: 130 nM

Question: `CS(=O)(=O)NCCOc1nonc1/C(=N/O)Nc1ccc(F)c(Br)c1` [Example 214, N-(3-bromo-4-fluorophenyl)-N′-hydroxy-4-(2-(methylsulfonamido)ethoxy)-1,2,5-oxadiazole-3-carboximidamide] was tested. Which IC50 (IDO1 [3]) did it give?
Answer: 44.4 nM

Question: And the IC50 (IDO1 [2])?
Answer: 205 nM
